{"source": "patent US20260272923A1", "about": "“NONSENSE MEDIATED DECAY INHIBITOR COMPOUNDS” (The Johns Hopkins University, priority 2023, published 2026)", "key": {"[1]": {"tested_on": "nonsense mediated decay (NMD)", "assay": "Ratiometric mutant/wild type transcript sequencing assay (HTS) in RPE1 STAG2 and TP53 isogenic knockout cell lines", "format": "cell-based", "from_the_text": "An experimental system was generated to identify and evaluate NMD inhibitors based on a panel of isogenic cell lines developed to assess tumor suppressor gene function and synthetic lethality. Briefly, common tumor suppressor genes were individually knocked out in multiple non-cancerous cell lines using the Clustered Regularly Interspaced Short Palindromic Repeats (CRISPR)-Cas9 system. As part of this effort, two genes displaying strong activation of NMD in response to indel creation were identified, Stromal Antigen 2 (STAG2) and Tumor Protein p53 (TP53). The absence of detectable protein in these knock out cell lines was verified via western blots against STAG2 and immunohistochemistry for TP53. Further, active RNA decay of the mutant transcripts was identified through whole transcriptome RNA-sequencing. […]\nA high throughput screen (HTS) was then performed by treating the isogenic cell line mixture with the SelleckChem Bioactive library, consisting of 2,658 small molecules and natural products (FIG. 1A). Total RNA was harvested from cells 16 hours post treatment and the gRNA target regions were amplified using a panel of primers (one for TP53 and one for STAG2) and mutant and wild type transcript abundance was quantified using next generation sequencing. […]"}, "[2]": {"tested_on": "nonsense mediated decay (NMD)", "assay": "Real time PCR of STAG2 transcripts in RPE STAG2 knockout cells", "format": "cell-based", "conditions": "serial dilution starting at 10 uM, 16 hrs", "description": "RPE STAG2 knockout cells were created and plated into 96 well plates at 1e4 cells/well. The compound of Formula II was solubilized in DMSO and added in a serial dilution starting at 10 uM and diluting 1:2. Cells were incubated for 16 hrs at 37 C and 5% CO2. RNA was harvested using an RNeasy kit (Qiagen). Real time PCR was performed using primers specific for STAG2 transcripts and at least one primer overlapped an exon-exon boundary (FIG. 7A)."}, "mutant protein (TP53) [3]": {"tested_on": "mutant protein (TP53)", "assay": "TP53 western blot in TP53 KO lines", "format": "cell-based", "conditions": "5 uM, 16 hours", "description": "TP53 KO lines were created and plated (at 1e5 cells per well) into 6 well plates. Wells were treated with 5 uM of the compound of Formula II for 16 hours. Cells were harvested, pelleted and washed with PBS. Cells were lysed using RIPA buffer (Thermo Scientific) and then run through a Qiashredder column (Qiagen) following manufacturer's instructions. Protein was quantified using a BCA Kit (Pierce). 50 ug of protein was loaded into 5-15% polyacrylamide gels (Biorad) and run for 30 min at 200V. Protein was transferred to a nitrocellulose membrane following manufacturer's recommendations and stained with a TP53 protein (clone DO-1 from Cell Signaling) overnight in 3% milk with TBS-T. HRP conjugated secondary antibody was used for detection and imaged on a gel imager (Bio Rad) (FIG. 7B)."}, "[4]": {"tested_on": "truncated mutant TP53 protein", "assay": "TP53 western blot in TP53 knockout clones", "format": "cell-based", "conditions": "for expression of truncated mutant TP53 protein: TP53 knockout cell line with homozygous mutation, DO-1 antibody", "description": "(§1) To confirm generality of the NMD HTS hits, validations were performed on isogenic STAG2 and TP53 knockouts in a second cell line background, RPtec (renal) cells. Transcript recovery was first evaluated in STAG2 and TP53 isogenic knockout clones from this second background. […] A TP53 knockout cell line was then selected with a homozygous mutation predicted to generate a truncated TP53 protein readily identifiable by established TP53 antibodies (DO-1). […] Using cell lines where the TP530 isoform transcripts are expected to be intact, an increase in the TP53$ isoform was also observed in cell lines treated with the NMD inhibitors (FIG. 1E middle and left column). […] Based on strong induction of predicted mutant truncated protein across multiple isogenic cell lines LY3023414 was selected as the NMD inhibiting compound of interest. LY3023414 was created as a phosphatidylinositol 3-kinase (PI3K) inhibitor with activity against AKT Serine/Threonine Kinase 1 (AKT1) and Target of Rapamycin (mTOR)."}, "[5]": {"tested_on": "NMD sensitive transcripts (TP53β)", "assay": "Quantitative real time PCR of TP53α and TP53β transcripts in parental RPE1 and RPTec cells", "format": "cell-based", "description": "as §1"}, "[6]": {"tested_on": "nonsense mediated decay (NMD)", "assay": "RNA sequencing of NCI-H358 and LS180 cancer cell lines", "format": "cell-based", "from_the_text": "(§2) It was next sought to evaluate whether LY3023414 could relieve repression of indel containing transcripts in cancer cells. The microsatellite stable NCI-H358 and microsatellite instable LS180 lung and colorectal cancer cell lines were chosen respectively. Nearly 40% of heterozygous indel and 25% of nonsense single base-pair mutation containing genes show increased expression of their mutant allele when treated with LY3023414 when evaluated by RNA sequencing (FIG. 2A). […] Heterozygous single nucleotide polymorphism (SNP) Ring Finger Protein 43 (RNF43) and drosha ribonuclease […] (DROSHA) served as controls, and allele ratios remain unchanged with treatment (FIG. 2B). To investigate for changes at the protein level, NCI-H358 cells were treated for 24 hours with either LY3023414 or DMSO.\n(§3) Analyzing a wider set of 21 NMD sensitive genes from the RNA-Seq analysis in LS180 confirmed that LY3023414 and SMG1 specific inhibitor increase the same 18 genes with a greater than 80% re-expression rate, in both cell lines. […] As SMG1 inhibition is an off target effect for LY3023414, the concentrations used in this study may result in inhibition of a number of different kinases."}, "[7]": {"tested_on": "nonsense mediated decay (NMD)", "assay": "Targeted RNA sequencing of heterozygous indel mutations in NCI-H358 and LS180 cells", "format": "cell-based", "conditions": "NCI-H358 and LS180, in vitro", "from_the_text": "as §2, §3\n(§4) To confirm disruption of downstream signaling of SMG1, a western blot was performed with phosphorylation specific antibodies for UPF1."}, "[8]": {"tested_on": "NMD targeted mutant protein (EXOC1, SPTAN1)", "assay": "Western blot of mutant proteins in NCI-H358 and LS180 cells", "format": "cell-based", "conditions": "NCI-H358 cells, 24 hours", "from_the_text": "as §2, §3, §4"}, "[9]": {"tested_on": "nonsense mediated decay (NMD)", "assay": "NCI-H358 and LS180 xenograft tumors in NOD-SCID mice, mutant RNA transcripts and tolerability", "format": "in vivo"}, "phosphorylated UPF1": {"tested_on": "phosphorylated UPF1", "assay": "Phospho-UPF1 specific western blot", "format": "cell-based", "conditions": "FIG. 3D", "description": "as §3, §4"}, "[10]": {"tested_on": "mutant form of TP53 protein", "assay": "Western blot against TP53 in NCI-H716 and NCI-H2228 cell lines"}, "[11]": {"tested_on": "nonsense mediated decay (NMD)", "assay": "Targeted RNA-sequencing of indel genes in LS180 cells", "format": "cell-based", "conditions": "serial dilution starting at 5 uM, 16 hrs", "description": "LS180 Cells were plated into 96 well plates at 1e4 cells/well. The compound of Formula III was solubilized in DMSO and added in a serial dilution starting at 5 uM and diluting 1:2. Cells were incubated for 16 hrs at 37 C and 5% CO2. RNA was harvested using an RNeasy kit (Qiagen). Reverse transcription was performed per manufacturer's instructions (High Capacity cDNA kit from Applied Biosciences). Primers specific for the indel mutation site for 3 genes were used, and at least one primer from each set overlapped an exon-exon boundary. RNF43 is a common SNP that is heterozygous in LS180 and was used as a negative control. After PCR amplification, products were barcoded with an 8 bp sequence so the well it originated in could be determined, and sequenced on a Miseq (Illumina). Transcripts from the wild type and mutant allele were counted to determine abundance of each with treatment or without (FIG. 8A)."}, "mutant protein (TP53) [12]": {"tested_on": "mutant protein (TP53)", "assay": "TP53 western blot in H358, LS180 and RPE TP53 KO clone 224", "format": "cell-based", "conditions": "5 uM, 16 hours", "description": "H358 (negative control), LSl80, and RPE TP53 KO line clone 224 were plated (at 1e5 cells per well) into 6 well plates. Wells were treated with 5 uM of the compound of Formula III for 16 hours. Cells were harvested, pelleted and washed with PBS. Cells were lysed using RIPA buffer (Thermo Scientific) and then run through a Qiashredder column (Qiagen) following manufacturer's instructions. Protein was quantified using a BCA Kit (Pierce). 50 ug of protein was loaded into 5-15% polyacrylamide gels (Biorad) and run for 30 min at 200V. Protein was transferred to a nitrocellulose membrane following manufacturer's recommendations and stained with a TP53 protein (clone DO-1 from Cell Signaling) overnight in 3% milk with TBS-T. HRP conjugated secondary antibody was used for detection and imaged on a gel imager (Bio Rad) (FIG. 8B)."}, "[13]": {"tested_on": "nonsense mediated decay (NMD)", "assay": "Targeted RNA-sequencing of subcutaneous H358 and LS180 tumors in nude mice", "format": "in vivo", "conditions": "IP dose at 30 mg/kg, H358 or LS180 tumors, 16 hours after treatment", "description": "All animal work was done under the supervision and guidance of Johns Hopkins Animal Care and Use committee with appropriate protocols and humane standards of care. LS180 and H358 cell lines (ATCC) were placed subcutaneously in the back of nude mice (Jackson Laboratories). The compound of Formula III was solubilized in 10% cremaphor (Sigma Aldrich) with 2% glycerol (Sigma Aldrich) and sterilized by 0.22 uM filter (Thermo Scientific). After tumors reached palpable size, about 7 days, mice were treated with […] of the compound of Formula III by IP injection. 16 hours after treatment, mice were sacked, and tumors were harvested and stored in RNA Later (Thermo Scientific). RNA was harvested using an RNeasy kit (Qiagen) and Qiashredder (Qiagen). Reverse transcription was performed per manufacturer's instructions (High Capacity cDNA kit from Applied Biosciences). Primers specific for the indel mutation site for 3 genes were used, and at least one primer from each set overlapped an exon-exon boundary. […] After PCR amplification, products were barcoded with an 8 bp sequence so the well it originated in could be determined, and sequenced on a Miseq (Illumina). Transcripts from the wild type and mutant allele were counted to determine abundance of each with treatment or without (FIGS. 9A-9B)."}}}
{"smiles": "CC[C@H]1CN2CCc3cc(OC)c(OC)cc3[C@@H]2C[C@@H]1C[C@H]1NCCc2cc(OC)c(OC)cc21", "note": "[emetine]", "values": [{"measurement": "recovery of mutant RNA transcript expression", "setting": "[1]; RPE1 STAG2/TP53 knockout cell line mixture", "value": 6, "unit": "fold"}]}
{"smiles": "CNC(=O)Nc1ccc(-c2cc(-c3ccnc(Nc4ccc(Cl)c(S(=O)(=O)N(CCO)CCO)c4)n3)ccn2)cc1", "note": "[compound of Formula II]", "values": [{"measurement": "mutant RNA re-expression", "setting": "[2]", "value": "re-expresses mutant RNA"}, {"measurement": "mutant protein re-expression", "setting": "mutant protein (TP53) [3]", "value": "re-expresses mutant protein"}]}
{"smiles": "CO[C@@H](C)Cn1c(=O)n(C)c2cnc3ccc(-c4cncc(C(C)(C)O)c4)cc3c21", "note": "[LY3023414]", "values": [{"measurement": "induction of TP53β and mutant TP53 (western blot)", "setting": "[4]; RPE TP53 clone 223, RPTec TP53 KO 588, full-length not induced", "value": "prominently induced"}, {"measurement": "expression of truncated mutant TP53 protein", "setting": "[4]", "value": "robustly induced expression of the truncated mutant TP53 protein"}, {"measurement": "TP53α and TP53β transcript levels", "setting": "[5]", "value": "only the NMD regulated (TP53β) transcript levels increased with treatment"}, {"measurement": "heterozygous indel containing genes with increased expression of mutant allele", "setting": "[6]", "value": "~40", "unit": "%"}, {"measurement": "nonsense single base-pair mutation containing genes with increased expression of mutant allele", "setting": "[6]", "value": 25, "unit": "%"}, {"measurement": "mutant allele RNA expression", "setting": "[7]", "value": "significant increased expression of the mutant allele"}, {"measurement": "truncated mutant EXOC1 and SPTAN1 protein expression", "setting": "[8]", "value": "truncated mutant protein only expressed after treatment with LY3023414"}, {"measurement": "autopsies of treated animals", "setting": "[9]; mice treated with LY3023414", "value": "no abnormalities"}, {"measurement": "weight loss", "setting": "[9]; mice treated with LY3023414", "value": "severe weight loss"}, {"measurement": "expression of mutant RNA transcripts in tumors", "setting": "[9]; single dose by oral gavage, tumors harvested over 24 hours", "value": "increase in the expression of mutant RNA transcripts"}, {"measurement": "phospho-UPF1 levels", "setting": "phosphorylated UPF1", "value": "increases the levels of phospho-UPF"}]}
{"smiles": "COc1ccc(C[C@H]2NC[C@H](O)[C@H]2OC(C)=O)cc1", "note": "[Anisomycin]", "values": [{"measurement": "mutant transcript fraction", "setting": "[1]; 16 hours post treatment, in all three cell lines, 0.5 = 4 standard deviations above DMSO controls", "value": "above 0.5"}]}
{"smiles": "O=c1[nH]cc(F)c(=O)[nH]1", "note": "[5-fluorouracil]", "values": [{"measurement": "TP53 protein levels", "setting": "[10]", "value": "no effect on TP53 levels"}]}
{"smiles": "O=C(CC1NCCCC1O)Cn1cnc2cc(Br)c(Cl)cc2c1=O", "note": "(centres unmarked) [halofuginone]", "values": [{"measurement": "expression of truncated mutant TP53 protein", "setting": "[4]", "value": "robustly induced expression of the truncated mutant TP53 protein"}]}
{"smiles": "CNC(=O)Nc1ccc(-c2cc(-c3ccnc(Nc4ccc(Cl)c(S(=O)(=O)N5CCN(C)CC5)c4)n3)ccn2)cc1", "note": "[compound of Formula III]", "values": [{"measurement": "mutant RNA re-expression", "setting": "[11]", "value": "re-expresses mutant RNA in vitro"}, {"measurement": "mutant protein re-expression", "setting": "mutant protein (TP53) [12]", "value": "re-expresses mutant protein in vitro"}, {"measurement": "in vivo NMD inhibition (re-expression of NMD downregulated genes)", "setting": "[13]", "value": "in vivo NMD inhibition activity"}]}
